Results reported in the NIST ThermoML archive (doi:10.1016/j.jct.2012.03.003).
± gives the expanded uncertainty stated by the source.

Assay: xn = mol fraction of the nth substance listed
Details: Liquid, Vibrating tube method

COc1cc2c(cc1O)CC1c3c(cc(O)c(OC)c3-2)CCN1C (stereo not given) [boldine] + CCCO
Details	mass density [kg/m3]
313.15 K, 12000 kPa, x1 = 0.0112	816.58 ± 0.74
313.15 K, 13000 kPa, x1 = 0.0018	800.62 ± 0.92
313.15 K, 13000 kPa, x1 = 0.0077	810.64 ± 0.7
313.15 K, 13000 kPa, x1 = 0.0112	817.36 ± 0.74
313.15 K, 14000 kPa, x1 = 0.0018	801.41 ± 0.92
313.15 K, 14000 kPa, x1 = 0.0077	811.41 ± 0.7
313.15 K, 14000 kPa, x1 = 0.0112	818.14 ± 0.74
313.15 K, 15000 kPa, x1 = 0.0018	802.19 ± 0.92
313.15 K, 15000 kPa, x1 = 0.0077	812.18 ± 0.7
313.15 K, 15000 kPa, x1 = 0.0112	818.89 ± 0.74
313.15 K, 16000 kPa, x1 = 0.0018	802.95 ± 0.92
313.15 K, 16000 kPa, x1 = 0.0077	812.94 ± 0.71
313.15 K, 16000 kPa, x1 = 0.0112	819.65 ± 0.75
313.15 K, 17000 kPa, x1 = 0.0018	803.72 ± 0.93
313.15 K, 17000 kPa, x1 = 0.0077	813.69 ± 0.71
313.15 K, 17000 kPa, x1 = 0.0112	820.39 ± 0.75
313.15 K, 18000 kPa, x1 = 0.0018	804.46 ± 0.93
313.15 K, 18000 kPa, x1 = 0.0077	814.42 ± 0.71
313.15 K, 18000 kPa, x1 = 0.0112	821.12 ± 0.75
313.15 K, 19000 kPa, x1 = 0.0018	805.19 ± 0.93
313.15 K, 19000 kPa, x1 = 0.0077	815.14 ± 0.72
313.15 K, 19000 kPa, x1 = 0.0112	821.85 ± 0.75
313.15 K, 20000 kPa, x1 = 0.0018	805.9 ± 0.93
313.15 K, 20000 kPa, x1 = 0.0077	815.85 ± 0.72
313.15 K, 20000 kPa, x1 = 0.0112	822.53 ± 0.75
323.1 K, 1000 kPa, x1 = 0.0018	782.67 ± 0.93
323.1 K, 2000 kPa, x1 = 0.0018	783.52 ± 0.93
323.1 K, 3000 kPa, x1 = 0.0018	784.36 ± 0.93
323.1 K, 4000 kPa, x1 = 0.0018	785.2 ± 0.93
323.1 K, 5000 kPa, x1 = 0.0018	786.06 ± 0.93
323.1 K, 6000 kPa, x1 = 0.0018	786.91 ± 0.93
323.1 K, 7000 kPa, x1 = 0.0018	787.78 ± 0.93
323.1 K, 8000 kPa, x1 = 0.0018	788.64 ± 0.93
323.1 K, 9000 kPa, x1 = 0.0018	789.49 ± 0.94
323.1 K, 10000 kPa, x1 = 0.0018	790.35 ± 0.94
323.1 K, 11000 kPa, x1 = 0.0018	791.2 ± 0.94
323.1 K, 12000 kPa, x1 = 0.0018	792.05 ± 0.94
323.1 K, 13000 kPa, x1 = 0.0018	792.88 ± 0.94
323.1 K, 14000 kPa, x1 = 0.0018	793.69 ± 0.94
323.1 K, 15000 kPa, x1 = 0.0018	794.51 ± 0.95
323.1 K, 16000 kPa, x1 = 0.0018	795.32 ± 0.95
323.1 K, 17000 kPa, x1 = 0.0018	796.1 ± 0.95
323.1 K, 18000 kPa, x1 = 0.0018	796.89 ± 0.95
323.1 K, 19000 kPa, x1 = 0.0018	797.65 ± 0.95
323.1 K, 20000 kPa, x1 = 0.0018	798.39 ± 0.96
323.11 K, 1000 kPa, x1 = 0.0112	799.52 ± 0.72
323.11 K, 1000 kPa, x1 = 0.0142	804.17 ± 0.62
323.11 K, 2000 kPa, x1 = 0.0112	800.32 ± 0.72
323.11 K, 2000 kPa, x1 = 0.0142	804.99 ± 0.63
323.11 K, 3000 kPa, x1 = 0.0112	801.16 ± 0.72
323.11 K, 3000 kPa, x1 = 0.0142	805.81 ± 0.63
323.11 K, 4000 kPa, x1 = 0.0112	801.99 ± 0.73
323.11 K, 4000 kPa, x1 = 0.0142	806.63 ± 0.64
323.11 K, 5000 kPa, x1 = 0.0112	802.82 ± 0.73
323.11 K, 5000 kPa, x1 = 0.0142	807.51 ± 0.64
323.11 K, 6000 kPa, x1 = 0.0112	803.66 ± 0.73
323.11 K, 6000 kPa, x1 = 0.0142	808.3 ± 0.64
323.11 K, 7000 kPa, x1 = 0.0112	804.52 ± 0.73
323.11 K, 7000 kPa, x1 = 0.0142	809.14 ± 0.64
323.11 K, 8000 kPa, x1 = 0.0112	805.34 ± 0.73
323.11 K, 8000 kPa, x1 = 0.0142	809.97 ± 0.65
323.11 K, 9000 kPa, x1 = 0.0112	806.15 ± 0.74
323.11 K, 9000 kPa, x1 = 0.0142	810.81 ± 0.65
323.11 K, 10000 kPa, x1 = 0.0112	807.01 ± 0.74
323.11 K, 10000 kPa, x1 = 0.0142	811.64 ± 0.65
323.11 K, 11000 kPa, x1 = 0.0112	807.85 ± 0.74
323.11 K, 11000 kPa, x1 = 0.0142	812.47 ± 0.65
323.11 K, 12000 kPa, x1 = 0.0112	808.67 ± 0.74
323.11 K, 12000 kPa, x1 = 0.0142	813.28 ± 0.66
323.11 K, 13000 kPa, x1 = 0.0112	809.47 ± 0.74
323.11 K, 13000 kPa, x1 = 0.0142	814.1 ± 0.66
323.11 K, 14000 kPa, x1 = 0.0112	810.29 ± 0.75
323.11 K, 14000 kPa, x1 = 0.0142	814.89 ± 0.66
323.11 K, 15000 kPa, x1 = 0.0112	811.07 ± 0.75
323.11 K, 15000 kPa, x1 = 0.0142	815.69 ± 0.67
